# Data as given in patent publication US20210386367A1, “DEVICES AND SYSTEMS FOR GASTROINTESTINAL MICROBIOME DETECTION AND MANIPULATION” (Progenity, Inc., priority 2018, published 2021).
# Read-outs that look alike come from different tables or passages of the source.
# Columns and labels:
# [1] = system: Bacteroides non fragilis clinical isolates; assay: MIC distribution against clinical isolates; format: cell-based; settings: 29 Bacteroides non-fragilis isolates
# [2] = system: Prevotella spp. clinical isolates; assay: MIC distribution against clinical isolates; format: cell-based
# [3] = system: Bacteroides fragilis; assay: Agar dilution MIC, 30 clinical isolates; format: cell-based; settings: for Mode: modal MIC
# [4] = system: S. pyogenes ATCC 49399; assay: Broth microdilution MIC (time-kill study); format: cell-based, Streptococcus pyogenes
# [5] = system: S. agalactiae ATCC 13813; assay: Broth microdilution MIC (time-kill study); format: cell-based, Streptococcus agalactiae
# [6] = system: S. pneumoniae ATCC 49619; assay: Time-kill assay; format: cell-based, Streptococcus pneumoniae; settings: for time-kill kinetics outcome (bactericidal = ≥3 log reduction in CFU per mL): 2×, 4×, 8× MIC, 2, 6, 24 hr
# [7] = system: S. agalactiae ATCC 13813; assay: Time-kill assay; format: cell-based, Streptococcus agalactiae; settings: 2×, 4×, 8× MIC; 2, 6, 24 hr
# [8] = system: three isolates each of E. coli, Streptococcus spp. and Bacteroides spp.; assay: Time-kill assay, overall summary; format: cell-based
# Protocol: MIC values were determined by broth microdilution in accordance with guidelines from the Clinical and Laboratory Standards Institute (CLSI; (1) “Methods for Dilution Antimicrobial Susceptibility Tests for Bacteria That Grow Aerobically; Approved Standard; 11th ed.,” CLSI standard M07, 2018; (2) “Performance Standards for Antimicrobial Susceptibility Testing; 28th ed.,” CLSI supplement M100, 2018).
# During the time-kill study, the test flasks were sampled at 2, 6, and 24 hr for determination of viable counts using the track dilution method as described above. Bacteroides was also sampled at 48 hr. All E. coli plates were incubated for 20-24 hr at 35° C., Streptococci for 20-24 hr at 35° C. in a CO2 incubator, and Bacteroides for approximately 48 hr at 35° C. in the anaerobe chamber. Colonies were counted manually, and the CFU/mL was determined from the average count of the duplicate plates, followed by the calculation of the log10 CFU/mL. The limit of detection for the assay was 50 CFU/mL.
# [9] = system: E. coli (ATCC 25922, ATCC 35218, MMX 1312); assay: Agar dilution MIC (spontaneous mutation study; strain in conditions); format: cell-based, Escherichia coli; settings: for MIC: Escherichia coli
# [10] = system: Streptococcus spp. (S. pneumoniae ATCC 49619, S. pyogenes ATCC 49399, S. agalactiae ATCC 13813); assay: as above; format: cell-based
# [11] = system: Bacteroides spp. (B. fragilis ATCC 25285, B. vulgatus, B. ovatus MMX 3503); assay: as above; format: cell-based
# [12] = system: S. pneumoniae ATCC 49619; settings: cited from earlier work
# [13] = system: Streptococcus spp. spontaneous mutants; settings: S. pneumoniae ATCC 49619; CLSI QC range shown in parentheses; cited from earlier work
# [14] = MIC 0.5 μg/mL, 30 Prevotella spp. isolates
# [15] = MIC 1 μg/mL, 30 Prevotella spp. isolates
# [16] = MIC 4 μg/mL, 30 Prevotella spp. isolates
# [17] = MIC 8 μg/mL, 30 Prevotella spp. isolates
# [18] = MIC >32 μg/mL, 30 Prevotella spp. isolates
# [19] = 30 Bacteroides fragilis clinical isolates
# [20] = MIC 16 μg/mL, 30 Prevotella spp. isolates
# [21] = MIC 32 μg/mL, 30 Prevotella spp. isolates
# [22] = MIC 64 μg/mL, 30 Prevotella spp. isolates
# [23] = S. agalacttae ATCC 13813 (so in the source)
compound,measurement,setting,value
Cc1ncc([N+](=O)[O-])n1CCO [MTZ],Cumulative percentage of isolates inhibited at MIC,[1]; MIC 0.5 μg/mL,55.2%
same,Number of test isolates at MIC,[1]; MIC 0.5 μg/mL,12
same,Cumulative percentage of isolates inhibited at MIC,[1]; MIC 1 μg/mL,75.9%
same,Number of test isolates at MIC,[1]; MIC 1 μg/mL,6
same,Cumulative percentage of isolates inhibited at MIC,[1]; MIC 2 μg/mL,96.6%
same,Number of test isolates at MIC,[1]; MIC 2 μg/mL,6
same,Cumulative percentage of isolates inhibited at MIC,[1]; MIC >16 μg/mL,100.0%
same,Number of test isolates at MIC,[1]; MIC >16 μg/mL,1
same,Cumulative percentage of isolates inhibited at MIC,[2]; [14],46.7%
same,Number of test isolates at MIC,[2]; [14],8
same,Cumulative percentage of isolates inhibited at MIC,[2]; [15],76.7%
same,Number of test isolates at MIC,[2]; [15],9
same,Cumulative percentage of isolates inhibited at MIC,[2]; [16],83.3%
same,Number of test isolates at MIC,[2]; [16],2
same,Cumulative percentage of isolates inhibited at MIC,[2]; [17],96.7%
same,Number of test isolates at MIC,[2]; [17],4
same,Cumulative percentage of isolates inhibited at MIC,[2]; [18],100.0%
same,Number of test isolates at MIC,[2]; [18],1
same,% S,[3]; [19],100%
same,MIC50,[3]; [19],1 µg/mL
same,MIC90,[3]; [19],2 µg/mL
same,MIC range,[3]; [19],0.25 to 2 µg/mL
same,Mode,[3]; [19],1 µg/mL
CO/N=C(\C(=O)N[C@@H]1C(=O)N2C(C(=O)O)=C(CSc3nc(=O)c(=O)[nH]n3C)CS[C@H]12)c1csc(N)n1 [ceftriaxone],Cumulative percentage of isolates inhibited at MIC,[1]; MIC 1 μg/mL,3.4%
same,Number of test isolates at MIC,[1]; MIC 1 μg/mL,1
same,Cumulative percentage of isolates inhibited at MIC,[1]; MIC 2 μg/mL,6.9%
same,Number of test isolates at MIC,[1]; MIC 2 μg/mL,1
same,Cumulative percentage of isolates inhibited at MIC,[1]; MIC 4 μg/mL,13.8%
same,Number of test isolates at MIC,[1]; MIC 4 μg/mL,2
same,Cumulative percentage of isolates inhibited at MIC,[1]; MIC 16 μg/mL,24.1%
same,Number of test isolates at MIC,[1]; MIC 16 μg/mL,3
same,Cumulative percentage of isolates inhibited at MIC,[1]; MIC 32 μg/mL,27.6%
same,Number of test isolates at MIC,[1]; MIC 32 μg/mL,1
same,Cumulative percentage of isolates inhibited at MIC,[1]; MIC 64 μg/mL,34.5%
same,Number of test isolates at MIC,[1]; MIC 64 μg/mL,2
same,Cumulative percentage of isolates inhibited at MIC,[2],100.0%
same,Number of test isolates at MIC,[2],3
same,Cumulative percentage of isolates inhibited at MIC,[2]; [14],20.0%
same,Number of test isolates at MIC,[2]; [14],1
same,Cumulative percentage of isolates inhibited at MIC,[2]; [16],33.3%
same,Number of test isolates at MIC,[2]; [16],4
same,Cumulative percentage of isolates inhibited at MIC,[2]; [17],36.7%
same,Number of test isolates at MIC,[2]; [17],1
same,Cumulative percentage of isolates inhibited at MIC,[2]; [20],46.7%
same,Number of test isolates at MIC,[2]; [20],3
same,Cumulative percentage of isolates inhibited at MIC,[2]; [21],66.7%
same,Number of test isolates at MIC,[2]; [21],6
same,Cumulative percentage of isolates inhibited at MIC,[2]; [22],90.0%
same,Number of test isolates at MIC,[2]; [22],7
same,isolates resistant,[3],Thirty-three
same,isolates with intermediate resistance,[3],27%
same,% I,[3]; [19],27%
same,% R,[3]; [19],33%
same,% S,[3]; [19],40%
same,MIC50,[3]; [19],32 µg/mL
same,MIC90,[3]; [19],>128 µg/mL
same,MIC range,[3]; [19],8 to 128 µg/mL
same,MIC50,"[3]; Bacteroides fragilis, read-out: MIC50",32 µg/mL
same,MIC90,"[3]; Bacteroides fragilis, read-out: MIC90",> 128 µg/mL
same,Mode,[3]; [19],16 µg/mL
same,MIC,[4]; S. pyogenes ATCC 49399,0.015 µg/mL
same,MIC,"[4]; Streptococcus pyogenes, ATCC49399, broth microdilution, read-out: MIC",0.015 µg/mL
same,MIC,[5]; [23],0.015 µg/mL
same,MIC,"[5]; Streptococcus agalactiae, ATCC13813, broth microdilution, read-out: MIC",0.015 µg/mL
same,time-kill kinetics outcome (bactericidal = ≥3 log reduction in CFU per mL),[6],all three drug concentrations tested demonstrated bactericidal effects at 24 hr
same,time-kill kinetics outcome (bactericidal = ≥3 log reduction in CFU per mL),[7],"bactericidal effect at 24 hr at 8×MIC, as did ceftriaxone (6 and 24 hr)"
same,overall time-kill outcome,[8],bactericidal activity
same,MIC,"[9]; read-out: Agar MIC, E. coli ATCC 25922",0.06 µg/mL
same,MIC,"[9]; read-out: Agar MIC, E. coli ATCC 35218",0.03 µg/mL
same,MIC,"[9]; read-out: Agar MIC, E. coli MMX 1312",4 µg/mL
same,MIC,"[9]; read-out: MIC value (agar dilution), E. coli MMX 1312",4 µg/mL
same,MIC,"[9]; read-out: MIC values (agar dilution), E. coli excluding E. coli MMX 1312 (stated jointly with Streptococcus spp.)",0.03 to 0.06 µg/mL
same,MIC,"[10]; Streptococcus agalactiae, S. agalactiae ATCC 13813, read-out: Agar MIC",0.06 µg/mL
same,MIC,"[10]; Streptococcus pneumoniae, S. pneumoniae ATCC 49619, read-out: Agar MIC",0.06 µg/mL
same,MIC,"[10]; Streptococcus pyogenes, S. pyogenes ATCC 49399, read-out: Agar MIC",0.03 µg/mL
same,MIC,"[10]; over evaluated Streptococcus spp. (range stated jointly with other groups), read-out: MIC values (agar dilution)",0.03 to 0.06 µg/mL
same,MIC,"[11]; B. fragilis and B. ovatus isolates, read-out: initial MIC values (agar dilution)",128 µg/mL
same,MIC,"[11]; Bacteroides fragilis, ATCC25285, read-out: Agar MIC",128 µg/mL
same,MIC,"[11]; Bacteroides ovatus, ATCC25285, read-out: Agar MIC",128 µg/mL
same,MIC,"[11]; Phocaeicola vulgatus, ATCC 25285 / ATCC 8482, read-out: Agar MIC",4 µg/mL
same,MIC,"[11]; over evaluated Bacteroides spp., read-out: MIC values (agar dilution)",4 to 128 µg/mL
same,CLSI QC range (MIC),[12],(0.03-0.12) μg/mL
same,"MIC, CLSI QC range",[13],(0.03-0.12)^1 μg/mL
CO[C@H]1/C=C/O[C@@]2(C)Oc3c(C)c(O)c4c(O)c(c5c(nc6cc(C)ccn65)c4c3C2=O)NC(=O)/C(C)=C\C=C\[C@H](C)[C@H](O)[C@@H](C)[C@@H](O)[C@@H](C)[C@H](OC(C)=O)[C@@H]1C [rifaximin],Number of test isolates at MIC,[1]; MIC […],12
same,Number of test isolates at MIC,[1]; MIC ≤0.03 μg/mL,3
same,Cumulative percentage of isolates inhibited at MIC,[2]; [21],100.0%
same,Number of test isolates at MIC,[2]; [21],1
same,Number of test isolates at MIC,"[2]; MIC […], 30 Prevotella spp. isolates",12
same,MIC50,[3],0.25 µg/mL
same,MIC90,[3],0.25 µg/mL
same,relative activity among drugs tested,[3],meropenem and rifaximin had similar activity
same,MIC50,[3]; [19],0.25 µg/mL
same,MIC90,[3]; [19],0.25 µg/mL
same,Mode,[3]; [19],0.25 µg/mL
same,MIC,[4]; S. pyogenes ATCC 49399,0.12 µg/mL
same,MIC,[4]; broth microdilution,0.12 µg/mL
same,MIC,[5]; [23],0.25 µg/mL
same,MIC,[5]; broth microdilution,0.25 µg/mL
same,time-kill kinetics outcome (bactericidal = ≥3 log reduction in CFU per mL),[6],rebounded to no-drug control levels at 24 hr
same,CFU decrease,"[6]; all three concentrations, 6 hr timepoint",approximately 2.3 log10 CFU
same,time-kill kinetics outcome (bactericidal = ≥3 log reduction in CFU per mL),[7],bacteriostatic effect at 4× and 8× the MIC
same,overall time-kill outcome,[8],bacteriostatic activity and regrowth was typically observed
same,Agar MIC,[9]; E. coli ATCC 25922,>4 µg/mL
same,Agar MIC,[9]; E. coli ATCC 35218,>4 µg/mL
same,Agar MIC,[9]; E. coli MMX 1312,4 µg/mL
same,MIC values (agar dilution),[9]; over evaluated E. coli isolates (range stated jointly with other groups),≥ 4 µg/mL
same,Agar MIC,[10]; S. agalactiae ATCC 13813,0.25 µg/mL
same,Agar MIC,[10]; S. pneumoniae ATCC 49619,0.03 µg/mL
same,Agar MIC,[10]; S. pyogenes ATCC 49399,0.12 µg/mL
same,MIC values (agar dilution),[10]; over evaluated Streptococcus spp. (range stated jointly with other groups),0.03 to 0.5 µg/mL
same,Agar MIC,[11]; B. fragilis ATCC 25285,0.25 µg/mL
same,Agar MIC,[11]; B. ovatus MMX 3503,0.5 µg/mL
same,Agar MIC,[11]; B. vulgatus ATCC 8482,0.12 µg/mL
